Earlier results, collected in patent US9353185B2, “Antibodies” (Affitech Research AS, priority 2010, dated 2016).

Experiments:
[1] = system: Th2-mediated inflammatory response; conditions: Hu et al, 2006; cited from earlier work
[2] = system: acute myeloid leukaemia (AML); conditions: Mozobil pre-conditioning prior to MEC chemotherapy; patients available for first follow-up evaluation; cited from earlier work
[3] = system: X4 HIV strains; conditions: in vitro and in vivo in clinical trials in humans; cited from earlier work
[4] = system: AML and lymphoma tumor xenograft models; conditions: multiple AML and lymphoma tumor xenograft models; cited from earlier work
[5] = system: CXCR4 expressing cell lines; conditions: range of CXCR4 expressing cell lines; cited from earlier work

**Q.** For `c1ccc(CNCc2ccc(CN3CCCNCCNCCCNCC3)cc2)nc1` [AMD3465], which “effect on Th2-mediated inflammatory response” value [1] is on record?
**A.** abrogate the Th2-mediated inflammatory response

**Q.** Which “complete remission (CR or CRi)” value [2] does the source give for `c1cc(CN2CCCNCCNCCCNCC2)ccc1CN1CCCNCCNCCCNCC1` [AMD3100, plerixafor] here?
**A.** 50% of patients

**Q.** What about the “inhibition of entry of X4 HIV strains” value [3] of the same compound?
**A.** very high efficacy

**Q.** With “MDX-1338: anti-human CXCR4-specific, fully human monoclonal antibody from Medarex; an IgG4” as the compound, how does the anti-tumor activity [4] read?
**A.** has anti-tumor activity

**Q.** And the induction of apoptosis [5]?
**A.** induces apoptosis
